This passage reports Papp results from patent US20230096766A1, “AMINO ACID HAVING FUNCTIONAL GROUP CAPABLE OF INTERMOLECULAR HYDROGEN BONDING, PEPTIDE COMPOUND CONTAINING SAME AND METHOD FOR PRODUCTION THEREOF” (Chugai Seiyaku Kabushiki Kaisha, priority 2018, published 2023).

Each structure is given as a SMILES string. *1 amine or outer side, *2 acyl side, *3 side chain or, on linkers, in order; H or OH if unused. Where a SMILES comes first, the peptide text is derived from it. Bridges are numbered along the chain shown (N, C = ends). [ ]: non-standard residue; d: D form. The star is where a group is joined. X14 = CC(C)[C@H](CC(=O)[C@H](Cc1ccccc1)N(C)[*:1])C(=O)[*:2]; NMePhe(3-Cl) = CN[C@@H](Cc1cccc(Cl)c1)C(=O)O; NMeF = CN[C@@H](Cc1ccccc1)C(=O)O; NMeGABA = CN(CCCC(=O)[*:2])[*:1]; NMeI = CC[C@H](C)[C@H](NC)C(=O)O; NMeL = CN[C@@H](CC(C)C)C(=O)O; Propyl(2R-OH) = C[C@@H](O)C*; Butyl(3S-OH) = C[C@H](O)CC*; NMeV = CN[C@H](C(=O)O)C(C)C; NMeA = CN[C@@H](C)C(=O)O; Piperidide = C1CCN(*)CC1; NBuGly = CCCCNCC(=O)O; Propyl(3-OH) = OCCC*; Sar = CNCC(=O)O; tBu = CC(C)(C)*

A short description of this data set: in vitro. The settings on record: human, Caco-2, Caco-2 (cm/sec).
As to `CCCCN1CC(=O)N(C)[C@@H](CC(C)C)C(=O)N[C@@H](COC[C@@H](C)O)C(=O)N(C)[C@@H](Cc2cccc(Cl)c2)C(=O)N(C)[C@@H](C(C)C)C(=O)N[C@H](C(=O)N2CCCCC2)CC(=O)N[C@H](C(C)C)C(=O)N(C)[C@@H](Cc2ccccc2)C(=O)N[C@@H](CC(C)C)C(=O)N(C)[C@@H](CC(C)C)C(=O)N[C@@H]([C@@H](C)O)C1=O` [AP80] ([dV][NMeF]L[NMeL]T[NBuGly][NMeL]S(Propyl(2R-OH))[NMePhe(3-Cl)][NMeV]D-Piperidide; lactam N-11), the Papp – broadly, a coefficient for how fast a substance crosses the barrier – turned out to be 0.36 ×10⁻⁶ cm/s. In turn, `CC(C)C[C@@H]1NC(=O)[C@H](Cc2ccccc2)N(C)C(=O)[C@@H](CC(C)C)NC(=O)C[C@@H](C(=O)N2CCCCC2)NC(=O)[C@H](CC(C)C)N(C)C(=O)[C@H](Cc2ccccc2)N(C)C(=O)[C@H](COC(C)(C)C)NC(=O)[C@H](CC(C)C)N(C)C(=O)CN(C)C(=O)[C@H](COC[C@@H](C)O)NC(=O)[C@H](CC(C)C)N(C)C1=O` [AP81] ([dL][NMeF]L[NMeL]S(Propyl(2R-OH))[Sar][NMeL]S(tBu)[NMeF][NMeL]D-Piperidide; lactam N-11) came in with a Papp of 0.69 ×10⁻⁶ cm/s. `CC(C)C[C@H]1C(=O)N[C@@H](C(C)C)C(=O)N(C)[C@@H](Cc2ccccc2)C(=O)N(C)[C@@H](Cc2ccccc2)C(=O)N[C@@H](COC(C)(C)C)C(=O)N(C)[C@@H](CC(C)C)C(=O)N[C@@H](COC[C@@H](C)O)C(=O)N(C)[C@@H](CC(C)C)C(=O)N(C)[C@@H](CC(C)C)C(=O)N[C@H](C(=O)N2CCCCC2)CC(=O)N(C)CCCC(=O)N1C` [AP83] ([NMeGABA][NMeL]V[NMeF][NMeF]S(tBu)[NMeL]S(Propyl(2R-OH))[NMeL][NMeL]D-Piperidide; lactam N-11) displayed a Papp of 1.3 ×10⁻⁶ cm/s. The compound `CC[C@H](C)[C@H]1C(=O)N[C@@H](COC[C@@H](C)O)C(=O)N(C)CC(=O)N(C)[C@@H](CC(C)C)C(=O)N[C@H](C(=O)N2CCCCC2)CC(=O)N(C)[C@@H](C)C(=O)N[C@@H](CC(C)C)C(=O)N(C)[C@@H](CC(C)C)C(=O)N(C)[C@@H](Cc2ccccc2)C(=O)N[C@@H](CC(C)C)C(=O)N(C)[C@@H](Cc2ccccc2)C(=O)N1C` [AP85] ([NMeA]L[NMeL][NMeF]L[NMeF][NMeI]S(Propyl(2R-OH))[Sar][NMeL]D-Piperidide; lactam N-11) showed a Papp of 5.2 ×10⁻⁶ cm/s. Consider `CC[C@H](C)[C@H]1C(=O)N[C@@H](C(C)C)C(=O)N(C)CC(=O)N(C)[C@@H](CC(C)C)C(=O)N[C@H](C(=O)N2CCCCC2)CC(=O)N(C)[C@@H](C)C(=O)N[C@@H](COC[C@@H](C)O)C(=O)N(C)[C@@H](CC(C)C)C(=O)N(C)[C@@H](Cc2ccccc2)C(=O)N[C@@H](CC(C)C)C(=O)N(C)[C@@H](Cc2ccccc2)C(=O)N1C` [AP86] ([NMeA]S(Propyl(2R-OH))[NMeL][NMeF]L[NMeF][NMeI]V[Sar][NMeL]D-Piperidide; lactam N-11), for which the Papp was found to be 3.7 ×10⁻⁶ cm/s. As for `CCCCN1CC(=O)N(C)[C@@H](Cc2ccccc2)C(=O)N(C)[C@@H](CC(C)C)C(=O)N[C@@H](COC(C)(C)C)C(=O)N(C)[C@@H](CC(C)C)C(=O)N[C@H](C(=O)N2CCCCC2)CC(=O)N(C)CC(=O)N(C)[C@@H](Cc2ccccc2)C(=O)N[C@@H](C(C)C)C(=O)N(C)[C@@H](CC(C)C)C(=O)N[C@@H](COC[C@@H](C)O)C1=O` [AP87] ([Sar][NMeF]V[NMeL]S(Propyl(2R-OH))[NBuGly][NMeF][NMeL]S(tBu)[NMeL]D-Piperidide; lactam N-11), the Papp is 1 ×10⁻⁶ cm/s. The compound `CC[C@H](C)[C@@H]1NC(=O)[C@H](CC(C)C)N(C)C(=O)[C@H](COC[C@@H](C)O)NC(=O)[C@H](Cc2ccccc2)N(C)C(=O)CN(C)C(=O)C[C@@H](C(=O)N2CCCCC2)NC(=O)[C@H](CC(C)C)N(C)C(=O)[C@H](COC(C)(C)C)NC(=O)[C@H](CC(C)C)N(C)C(=O)[C@H](Cc2ccccc2)N(C)C(=O)CN(C)C1=O` [AP88] ([Sar][NMeF]S(Propyl(2R-OH))[NMeL]I[Sar][NMeF][NMeL]S(tBu)[NMeL]D-Piperidide; lactam N-11) had a Papp of 3.3 ×10⁻⁶ cm/s. `CCCCN1CC(=O)N(C)[C@@H](CC(C)C)C(=O)N[C@@H](COC(C)(C)C)C(=O)N(C)[C@@H](Cc2ccccc2)C(=O)N(C)[C@@H](CC(C)C)C(=O)N[C@H](C(=O)N2CCCCC2)CC(=O)N[C@H](CC(C)C)C(=O)N(C)[C@@H](Cc2ccccc2)C(=O)N[C@@H](COCCCO)C(=O)N(C)[C@@H](CC(C)C)C(=O)N[C@@H]([C@@H](C)O)C1=O` [AP89] ([dL][NMeF]S(Propyl(3-OH))[NMeL]T[NBuGly][NMeL]S(tBu)[NMeF][NMeL]D-Piperidide; lactam N-11) had a Papp of 0.12 ×10⁻⁶ cm/s. In turn, `CC(C)C[C@@H]1NC(=O)[C@H](Cc2ccccc2)N(C)C(=O)[C@@H](C(C)C)NC(=O)C[C@@H](C(=O)N2CCCCC2)NC(=O)[C@H](CC(C)C)N(C)C(=O)[C@H](Cc2cccc(Cl)c2)N(C)C(=O)[C@H](COCCCO)NC(=O)[C@H](CC(C)C)N(C)C(=O)CN(C)C(=O)[C@H]([C@@H](C)O)NC(=O)[C@H](CC(C)C)N(C)C1=O` [AP90] ([dV][NMeF]L[NMeL]T[Sar][NMeL]S(Propyl(3-OH))[NMePhe(3-Cl)][NMeL]D-Piperidide; lactam N-11) came in with a Papp of 3.3 ×10⁻⁶ cm/s. In the case of `CC(C)C[C@@H]1NC(=O)[C@H](Cc2cccc(Cl)c2)N(C)C(=O)[C@H](Cc2ccccc2)N(C)C(=O)[C@H](COCCCO)NC(=O)[C@H](CC(C)C)N(C)C(=O)CCCN(C)C(=O)C[C@@H](C(=O)N2CCCCC2)NC(=O)[C@H](CC(C)C)N(C)C(=O)[C@H](CC(C)C)N(C)C(=O)[C@H]([C@@H](C)O)NC(=O)[C@H](CC(C)C)N(C)C1=O` [AP91] ([NMeGABA][NMeL]S(Propyl(3-OH))[NMeF][NMePhe(3-Cl)]L[NMeL]T[NMeL][NMeL]D-Piperidide; lactam N-11) it was 0.14 ×10⁻⁶ cm/s. With `CC[C@H](C)[C@@H]1NC(=O)[C@H](CC(C)C)N(C)C(=O)CCCN(C)C(=O)C[C@@H](C(=O)N2CCCCC2)NC(=O)[C@H](CC(C)C)N(C)C(=O)[C@H](CC(C)C)N(C)C(=O)[C@H]([C@@H](C)O)NC(=O)[C@H](CC(C)C)N(C)C(=O)[C@H](COCCCO)NC(=O)[C@H](Cc2cccc(Cl)c2)N(C)C(=O)[C@H](Cc2ccccc2)N(C)C1=O` [AP92] ([NMeGABA][NMeL]I[NMeF][NMePhe(3-Cl)]S(Propyl(3-OH))[NMeL]T[NMeL][NMeL]D-Piperidide; lactam N-11), the apparent permeability coefficient (Papp) amounted to 0.18 ×10⁻⁶ cm/s. `CCCCN1CC(=O)N(C)[C@@H](CC(C)C)C(=O)N[C@H](C(=O)N2CCCCC2)CC(=O)N(C)[C@@H](C(C)C)C(=O)N[C@@H](COCCCO)C(=O)N(C)[C@@H](CC(C)C)C(=O)N(C)[C@@H](Cc2ccccc2)C(=O)C[C@@H](C(C)C)C(=O)N(C)[C@@H](Cc2ccccc2)C(=O)N(C)[C@@H](CC(C)C)C(=O)N[C@@H]([C@@H](C)O)C1=O` [AP93] ([NMeV]S(Propyl(3-OH))[NMeL][X14][NMeF][NMeL]T[NBuGly][NMeL]D-Piperidide; lactam N-10) showed a Papp of 1.1 ×10⁻⁶ cm/s. For the compound `CC(C)C[C@@H]1NC(=O)[C@H](CC(C)C)N(C)C(=O)C[C@@H](C(=O)N2CCCCC2)NC(=O)[C@H](CC(C)C)N(C)C(=O)CN(C)C(=O)[C@H]([C@@H](C)O)NC(=O)[C@H](CC(C)C)N(C)C(=O)[C@H](Cc2ccccc2)N(C)C(=O)[C@H](COCCCO)NC(=O)[C@H](Cc2ccccc2)N(C)C(=O)[C@H](CC(C)C)N(C)C1=O` [AP94] ([NMeL]L[NMeL][NMeF]S(Propyl(3-OH))[NMeF][NMeL]T[Sar][NMeL]D-Piperidide; lactam N-11), the Papp amounted to 0.35 ×10⁻⁶ cm/s. Regarding `CCCCN1CC(=O)N(C)[C@@H](Cc2ccccc2)C(=O)N[C@@H](COCCCO)C(=O)N(C)[C@@H](CC(C)C)C(=O)N[C@@H]([C@@H](C)O)C(=O)N(CCCC)CC(=O)N(C)[C@@H](Cc2ccccc2)C(=O)N(C)[C@@H](C(C)C)C(=O)N[C@@H](COC(C)(C)C)C(=O)N(C)[C@@H](CC(C)C)C(=O)N[C@H](C(=O)N2CCCCC2)CC1=O` [AP95] ([NBuGly][NMeF]S(Propyl(3-OH))[NMeL]T[NBuGly][NMeF][NMeV]S(tBu)[NMeL]D-Piperidide; lactam N-11), the Papp is 0.69 ×10⁻⁶ cm/s. As for `CCCCN1CC(=O)N(C)[C@@H](Cc2cccc(Cl)c2)C(=O)N(C)[C@@H](CC(C)C)C(=O)N[C@@H](COCCCO)C(=O)N(C)[C@@H](CC(C)C)C(=O)N[C@H](C(=O)N2CCCCC2)CC(=O)N(C)CC(=O)N(C)[C@@H](Cc2ccccc2)C(=O)N[C@@H]([C@@H](C)CC)C(=O)N(C)[C@@H](CC(C)C)C(=O)N[C@@H]([C@@H](C)O)C1=O` [AP96] ([Sar][NMeF]I[NMeL]T[NBuGly][NMePhe(3-Cl)][NMeL]S(Propyl(3-OH))[NMeL]D-Piperidide; lactam N-11), the Papp was 0.17 ×10⁻⁶ cm/s. Regarding `CCCCN1CC(=O)N(C)[C@@H](CC(C)C)C(=O)N[C@@H](COCCCO)C(=O)N(C)[C@@H](Cc2cccc(Cl)c2)C(=O)N(C)[C@@H](CC(C)C)C(=O)N[C@H](C(=O)N2CCCCC2)CC(=O)N[C@H](C(C)C)C(=O)N(C)[C@@H](Cc2ccccc2)C(=O)N[C@@H](CC(C)C)C(=O)N(C)[C@@H](CC(C)C)C(=O)N[C@@H]([C@@H](C)O)C1=O` [AP98] ([dV][NMeF]L[NMeL]T[NBuGly][NMeL]S(Propyl(3-OH))[NMePhe(3-Cl)][NMeL]D-Piperidide; lactam N-11), the Papp was found to be 0.16 ×10⁻⁶ cm/s. This Papp and that of the compound before are within 1.5-fold of each other. As for `CCCCN1CC(=O)N(C)[C@@H](C(C)C)C(=O)N[C@@H](COC(C)(C)C)C(=O)N(C)[C@@H](Cc2ccccc2)C(=O)N(C)[C@@H](CC(C)C)C(=O)N[C@H](C(=O)N2CCCCC2)CC(=O)N[C@H](C(C)C)C(=O)N(C)[C@@H](Cc2ccccc2)C(=O)N[C@@H](COCC[C@H](C)O)C(=O)N(C)[C@@H](CC(C)C)C(=O)N[C@@H]([C@@H](C)O)C1=O` [AP99] ([dV][NMeF]S(Butyl(3S-OH))[NMeL]T[NBuGly][NMeV]S(tBu)[NMeF][NMeL]D-Piperidide; lactam N-11), the Papp came out at 0.86 ×10⁻⁶ cm/s.

For the compound `CC(C)C[C@@H]1NC(=O)[C@H](Cc2ccccc2)N(C)C(=O)[C@@H](C(C)C)NC(=O)C[C@@H](C(=O)N2CCCCC2)NC(=O)[C@H](CC(C)C)N(C)C(=O)[C@H](Cc2cccc(Cl)c2)N(C)C(=O)[C@H](COCC[C@H](C)O)NC(=O)[C@H](CC(C)C)N(C)C(=O)CN(C)C(=O)[C@H]([C@@H](C)O)NC(=O)[C@H](CC(C)C)N(C)C1=O` [AP100] ([dV][NMeF]L[NMeL]T[Sar][NMeL]S(Butyl(3S-OH))[NMePhe(3-Cl)][NMeL]D-Piperidide; lactam N-11), the Papp is 0.55 ×10⁻⁶ cm/s.
